One compound from paper doi:10.1101/2024.09.05.611349v1 (biorxiv, 2024) can be followed below.

Data set [1] concerns Staphylococcus epidermidis MSSE 15-58. In words: microbe, parasite or virus in culture. Also on record: species or system gram-positive clinical isolates. Particulars: Staphylococcus epidermidis, MSSE1558, read-out: MIC(μg/ml) / 1b.
Data set [2] deals with Staphylococcus epidermidis MSSE 15-4. In words: microbe, parasite or virus in culture. Further details: species or system gram-positive clinical isolates. As to conditions: Staphylococcus epidermidis, MSSE154, read-out: MIC(μg/ml) / 1b.
Data set [3] deals with Staphylococcus epidermidis MSSE 15-2. The data set is described as follows: microbe, parasite or virus in culture. Further details: species or system gram-positive clinical isolates. As to conditions: Staphylococcus epidermidis, MSSE152, read-out: MIC(μg/ml) / 1b.
Data set [4] relates to Staphylococcus epidermidis MSSE 15-64. In words: microbe, parasite or virus in culture. Further details: species or system gram-positive clinical isolates. As to conditions: Staphylococcus epidermidis, MSSE1564, read-out: MIC(μg/ml) / 1b.
Data set [5] relates to Staphylococcus epidermidis MSSE 15-59. In words: microbe, parasite or virus in culture. As to conditions: Staphylococcus epidermidis, MSSE1559, read-out: MIC(μg/ml) / 1b. Further details: species or system gram-positive clinical isolates.
Data set [6] relates to Staphylococcus epidermidis MSSE 15-61. In words: microbe, parasite or virus in culture. Particulars: Staphylococcus epidermidis, MSSE1561, read-out: MIC(μg/ml) / 1b. Further details: species or system gram-positive clinical isolates.
Data set [7] deals with Staphylococcus epidermidis MSSE 15-3. The data set is described as follows: microbe, parasite or virus in culture. Also on record: species or system gram-positive clinical isolates. As to conditions: Staphylococcus epidermidis, MSSE153, read-out: MIC(μg/ml) / 1b.
Data set [8] can be described thus: in vitro. Particulars: Mouse plasma.
Data set [9] in a line: in vitro. Particulars: mouse, liver microsomes.

Usually microsomal CLint stands for a measure of how fast metabolising enzymes remove a compound, apart from limits set by blood flow. A high value points to faster metabolism.

The structures appear in SMILES notation. In brackets after ≈: the same amount, converted by molar mass.

In the case of `CCCCCOc1ccc(C(=O)NNC(=S)NC(C)=O)cc1` [1b, N-(2-(4-(n-pentoxy)benzoyl)hydrazine-1-carbonothioyl)acetamide], the MIC in data set [1] was 1 µg/mL (≈ 3.09 µM); in data set [2], 1 µg/mL (≈ 3.09 µM); in data set [3] it was 1 µg/mL (≈ 3.09 µM); in [4], 8 µg/mL (≈ 24.7 µM); in [5], 1 µg/mL (≈ 3.09 µM); in [6], 1 µg/mL (≈ 3.09 µM). In addition, the MIC in [7] turned out to be 1 µg/mL (≈ 3.09 µM). For the same compound, the “Mouse plasma T1/2” value in “in vitro [8]” was more than 2 h. In “in vitro [9]”, this compound displayed a microsomal CLint of 49 µL/min/mg.
